Test results: patent US20240237690A1, “Licorice Compounds and Their Use as Flavor Modifiers” (Firmenich SA, priority 2021, published 2024)

What was measured:
Type in all cases: in vivo, human
[1] = system: sweet taste of water solution containing 4% sucrose; assay: Sensory testing by trained taste panel: sweet taste, sucrose reference; settings: mean of 20 trained panelists, scale −5 to 5; compound at 10 or 40 ppm; 0 = reference water solution containing 4% sucrose
Text: (§1) A panel consisted in 20 trained taste panelists evaluated samples of each of Compounds 101-106 at 10 or 40 ppm for taste properties (sweet, licorice, lingering, bitter or astringent) on a scale of −5 to 5 (−5 to −4 denoted strong masking effect, −4 to −3 denoted moderate masking effect, −3 to −2 denoted masking effect, −2 to 0 denoted weak masking effect, while 5 to 4 denoted strong enhancing effect, 4 to 3 denoted moderate enhancing effect, 3 to 2 denoted enhancing effect, 2 to 0 denoted weak enhancing effect, 0 being equal to the intensity of a reference water solution containing 4% sucrose or 0.02% SG95 (>95% steviol glycosides) or 10 ppm mixture of Limonin, Naringin, and Normilin (for bitter and astringent). Note that ED and HED refers to eriodictyol or homoeriodictyol, respectively, at a concentration of 40 ppm.

[2] = system: bitter taste of 10 ppm mixture of Limonin, Naringin, and Normilin; assay: Sensory testing by trained taste panel: bitter taste, citrus bitter mixture; settings: mean of 20 trained panelists, scale −5 to 5, compound at 10 or 40 ppm, ED at 40 ppm, 0 = reference 10 ppm mixture of Limonin
Text: as §1

[3] = system: lingering taste of 0.02% SG95 (>95% steviol glycosides); assay: Sensory testing by trained taste panel: lingering, SG95 reference; settings: mean of 20 trained panelists, scale −5 to 5; compound at 10 or 40 ppm; 0 = reference 0.02% SG95
Text: as §1

[4] = system: astringent taste of 10 ppm mixture of Limonin, Naringin, and Normilin; assay: Sensory testing by trained taste panel: astringent taste, citrus bitter mixture; settings: mean of 20 trained panelists, scale −5 to 5, compound at 10 or 40 ppm, ED at 40 ppm, 0 = reference 10 ppm mixture of Limonin
Text: as §1

| Compound | Sweet (sucrose) [1] | Bitter (Limonin, Naringin, and Normilin) [2] | Lingering (SG95) [3] | Astringent (Limonin, Naringin, and Normilin) [4] |
| --- | --- | --- | --- | --- |
| O=C1C[C@@H](c2ccc(O[C@@H]3O[C@H](CO)[C@@H](O)[C@H](O)[C@H]3O)cc2)Oc2cc(O)ccc21 [Compound 101, liquiritin] | Enhance (3 to 2 denoted enhancing effect) | Mask (−3 to −2 denoted masking effect) |  |  |
| O=C1C[C@@H](c2ccc(O)cc2)Oc2cc(O)ccc21 [Compound 102, liquiritigenin] |  | Mask (−3 to −2 denoted masking effect) | Mask (−3 to −2 denoted masking effect) | Mask (−3 to −2 denoted masking effect) |
| O=C(/C=C/c1ccc(O)cc1)c1ccc(O)cc1O [Compound 104, isoliquiritigenin] | Enhance (3 to 2 denoted enhancing effect) |  |  |  |
| O=C1C[C@@H](c2ccc(O)c(O)c2)Oc2cc(O)cc(O)c21 [ED, eriodictyol, reference compound] |  | Mask (−3 to −2 denoted masking effect) |  |  |
